Data published in patent publication US10927097B2, “Indole compound as inhibitor of necrosis” (LG CHEM, LTD., priority 2013, dated 2021).

What follows are compounds tested on primary hepatocytes isolated from rats (assay: Hepatocyte protective effect against doxorubicin treatment (cell viability, WST-1)). Settings: Hepatocyte, primary rat hepatocytes pretreated with compound for 30 min, viability by WST-1 after 24-48 hours.
Type: cell-based
Experimental: Various endogenous/exogenous attacks on cells trigger the mechanisms of cell death which is broadly classified into two types—i.e., apoptosis or necrosis. Using these cell death mechanisms, in the present experimental example, primary hepatocytes isolated from rats were treated with drugs which were clinically shown to result in serious side-effects of hepatocyte toxicity or various chemicals which derive cell death, and the compounds synthesized in the Examples were estimated for their hepatocyte protective effects, after 24-48 hours. The substances used to cause hepatocyte death include CCl4, ActD, H2O2, doxorubicin, anti-Fas Ab/Actinomycin D, acetaminophen, EtOH, CdCl2, palmitate, stearate, cyclophosphamide, terfenadine, diclofenac, simvastatin, and adefovir. Primary hepatocytes were isolated using the method of Seglen P O (Experimental Cell Research 74 (1972), pp. 450-454). Briefly, hepatocytes were isolated according to the two-step collagenase perfusion method, and dead cells were removed by low speed (500 rpm) centrifugation for 10 min using percoll gradient (Kreamer B L et al., In Vitro Cellular & Developmental Biology 22 (1986), pp. 201-211). During this step, the viability of cells was maintained 90% or above. The cells were suspended in HepatoZYME media (Gibco BRL), and the number of cells was counted. 1.5×10^4 cells in 100 μl were placed into the collagen-coated 96-well plate (BD Biocoat), and adhered on the bottom for 3-4 hours.
In order to assess the hepatocyte protective effect, the above adhered cells were pretreated with the Example compounds for 30 min. At this time, the concentration of the Example compounds was serially diluted by 2-fold or 3-fold over 5 steps starting from 30 μM, 10 μM or 1 μM depending on the experiments, and the final concentration of DMSO was adjusted to 0.2%. 30 min after the treatment by the compounds, the cells were treated by the substances causing hepatocyte death or hepatotoxic drugs at the concentrations indicated in Table 1. After 24-48 hours, the viability of cells was determined to estimate the hepatocyte protective effect. The viability of cells was determined using the WST-1 (MK-400, Takeda) method by the absorbance at 440 nm. Hepatocyte protective effects of the Example compounds were represented by “EC50” which was calculated from measured values. “EC50” herein means the concentration of the compound at which 50% of maximum protective effect is observed in the experiment.
With `O=C1CN(CCc2cc3cc(Cl)cc(NCc4ccccc4)c3[nH]2)CCN1` [Example 14, 4-[2-(7-Benzylamino-5-chloro-1H-indol-2-yl)-ethyl]-piperazin-2-one] the EC50 was 300 nM.
With `CC(=O)N1CCC(Nc2cc(Cl)cc3cc(CCN4CCNC(=O)C4)[nH]c23)CC1` [Example 3, 4-{2-[7-(1-Acetyl-piperidin-4-ylamino)-5-chloro-1H-indol-2-yl]-ethyl}-piperazin-2-one] the EC50 was 270 nM.
In the case of `Clc1cc(NC2CCCC2)c2[nH]c(C3CCNCC3)cc2c1` [Example 48, (5-Chloro-2-piperidin-4-yl-1H-indol-7-yl)-cyclopentyl-amine], the EC50 is reported as 210 nM.
`O=S1(=O)CCN(CCc2cc3cc(Cl)cc(NC4CCCC4)c3[nH]2)CC1` [Example 19, {5-Chloro-2-[2-(1,1-dioxothiomorpholin-4-yl)-ethyl]-1H-indol-7-yl}-cyclopentyl-amine] was tested, and the EC50 was 270 nM.
`O=C1CN(Cc2cc3cc(Cl)cc(NC4CCCC4)c3[nH]2)CCN1` [Example 1, 4-(5-Chloro-7-cyclopentylamino-1H-indol-2-ylmethyl)-piperazin-2-one] showed an EC50 of 160 nM.
`O=C1CN(CCc2cc3cc(Cl)cc(NCC4CCOCC4)c3[nH]2)CCN1` [Example 22, 4-(2-{5-Chloro-7-[(tetrahydropyran-4-ylmethyl)-amino]-1H-indol-2-yl}-ethyl)-piperazin-2-one] showed an EC50 of 900 nM.
Compound `Cc1cc(NCC2CCOCC2)c2[nH]c(CN3CCS(=O)(=O)CC3)cc2c1` [Example 7, [2-(1,1-Dioxothiomorpholin-4-ylmethyl)-5-methyl-1H-indol-7-yl]-(tetrahydropyran-4-ylmethyl)-amine] has an EC50 of 440 nM.
`Cc1cc(NC2CCCC2)c2[nH]c(CN3CCS(=O)(=O)CC3)cc2c1` [Example 8, Cyclopentyl-[2-(1,1-dioxothiomorpholin-4-ylmethyl)-5-methyl-1H-indol-7-yl]-amine] gave an EC50 of 240 nM.

Same assay, conditions: primary rat hepatocytes pretreated with compound for 30 min, viability by WST-1 after 24-48 hours
“1-(4-{5-Chloro-2-[2-(3-trifluoromethyl-5,6,7,8-tetrahydro-[1,2,4]triazolo[4,3-a]pyrazin-1-yl)-ethyl]-1H-indol-7-yl}-piperidin-1-yl)-ethanone [Example 13]” gave an EC50 of 1800 nM.
With `CS(=O)(=O)N1CCC(Nc2cc(Cl)cc3cc(CCN4CCn5c(nnc5C(F)(F)F)C4)[nH]c23)CC1` [Example 12] the EC50 was 600 nM.
“4-[5-Methyl-7-(tetrahydropyran-4-ylmethylamino)-1H-indol-2-ylmethyl)-piperazin-2-one [Example 9]” gave an EC50 of 250 nM.
`O=S1(=O)CCN(CCc2cc3cc(Cl)cc(NC4CCOCC4)c3[nH]2)CC1` [Example 18] showed an EC50 of 240 nM.
